Publication PMC6284057, “Combined Antibacterial Effects of Goat Cathelicidins With Different Mechanisms of Action” (Frontiers in Microbiology, 2018)
Read-outs that look alike come from different tables or passages of the source. No end group written: not given here.

Key:
[1] = test system: A. baumannii (XDR CI 2675); test: microbe, parasite or virus in culture; type: cell-based, Acinetobacter baumannii; conditions: read-out: Minimum inhibitory concentration
Protocol: (§1) Antimicrobial assay was performed as described previously ([Panteleev et al., 2017b]). Briefly, mid-log phase bacterial test cultures were diluted with the 2× Mueller-Hinton broth (MH, Sigma) supplemented with 1.8% NaCl or without it so that to reach a final cell concentration of 10^6 CFU/ml. 50 μl aliquots of the obtained bacterial suspension were added to 50 μl of the peptide solutions serially diluted with 0.1% water solution of bovine serum albumin (BSA) in 96-well flat-bottom polystyrene microplates (Eppendorf #0030730011). After incubation at 37°C and 900 rpm for 24 h the minimum inhibitory concentrations (MIC) were determined as the lowest peptide concentrations that prevented growth of a test microorganism observed as visible turbidity. The results were expressed as the median values determined on the basis of at least three independent experiments performed in triplicate.

[2] = test system: E. coli (XDR CI 1057); test: microbe, parasite or virus in culture; type: cell-based, Escherichia coli
Protocol: as §1

[3] = test system: K. pneumoniae (XDR CI 1056); test: microbe, parasite or virus in culture; type: cell-based, Klebsiella pneumoniae; conditions: Table S2, XDR clinical isolate; NaCl content of medium not stated; read-out: Minimum inhibitory concentration
Protocol: as §1

[4] = test system: E. coli ML-35p; type: cell-based, Escherichia coli; conditions: Mueller-Hinton broth, 10^6 CFU/ml, 0.1% BSA, 37°C, 24 h, median of at least 3 experiments
Protocol: as §1

[5] = test system: E. coli (CI 214); type: cell-based, Escherichia coli; conditions: CI 214, 24 h
Protocol: as §1
(§2) The peptides were twofold serially diluted with 0.1% BSA in 96-well microplates (Eppendorf #0030730011). Then, the peptide solutions were mixed in the new test plate crosswise in such a way that the resulting checkerboard contained each combination of the cathelicidins in eight doubly increasing concentrations, with wells containing the highest concentration of each peptide at opposite corners ([Berditsch et al., 2015]). Then, the antimicrobial assay was performed as described in the previous section. […] The results were expressed as the median values determined on the basis of three independent experiments performed in duplicate. Estimation of synergistic effects of different cathelicidins was performed by calculating the fractional inhibitory concentration index (FICI) according to the equation: FICI = [À]/MICÀ + [B]/MICB, where MICÀ and MICB are the MICs of the individual substances, while [A] and [B] are the MICs of A and B when used together. A synergistic effect was defined at a FICI ≤ 0.5.

[6] = test system: E. coli (XDR CI 1057); type: cell-based, Escherichia coli; conditions: for Fractional inhibitory concentration (FICA, FICB): [X]/MICX; for Fractional inhibitory concentration (FICA, FICB) / MIC of the peptide when used together ([A], [B]): 0.9% NaCl; for MIC of the peptide when used together ([A], [B]): in the mix ChMAP-28 + mini-ChBac7.5Nα, other peptide at sub-inhibitory concentration; for MIC of the individual peptide (MICA, MICB): peptide used individually, medium with physiological NaCl (0.9%), median of 3 experiments in duplicate
Protocol: as §1, §2

[7] = test system: E. coli BL21 (DE3); type: cell-based, Escherichia coli; conditions: BL21, 24 h
Protocol: as §1, §2

[8] = test system: E. coli C600; type: cell-based, Escherichia coli
Protocol: as §1, §2

[9] = test system: E. coli ML-35p; type: cell-based, Escherichia coli; conditions: for Fractional inhibitory concentration (FICA, FICB): [X]/MICX; for Fractional inhibitory concentration (FICA, FICB) / MIC of the peptide when used together ([A], [B]): 0.9% NaCl; for MIC of the peptide when used together ([A], [B]): in the mix ChMAP-28 + mini-ChBac7.5Nα, other peptide at sub-inhibitory concentration; for MIC of the individual peptide (MICA, MICB): peptide used individually, medium with physiological NaCl (0.9%), median of 3 experiments in duplicate
Protocol: as §1, §2

[10] = test system: E. cloacae (XDR CI 4172); type: cell-based, Enterobacter cloacae; conditions: for Fractional inhibitory concentration (FICA, FICB): [X]/MICX; for Fractional inhibitory concentration (FICA, FICB) / MIC of the peptide when used together ([A], [B]): 0.9% NaCl; for MIC of the peptide when used together ([A], [B]): in the mix ChMAP-28 + mini-ChBac7.5Nα, other peptide at sub-inhibitory concentration; for MIC of the individual peptide (MICA, MICB): peptide used individually, medium with physiological NaCl (0.9%), median of 3 experiments in duplicate
Protocol: as §1, §2

[11] = test system: E. coli XDR CI 1057 (26 days with polymyxin B); conditions: Table 4, strain after 26 days with polymyxin B (selection in MH broth with 0.9% NaCl)
Protocol: as §1, with “After incubation at 37°C and 900 rpm for 24 h the minimum inhibitory concentrations (MIC) were determined as the lowest peptide concentrations that prevented growth of a test microorganism observed as visible turbidity.” left out
(§3) Resistance induction experiments were performed using the previously described method ([Chernysh et al., 2015]) with some modifications. Briefly, on day 1, the overnight culture of wild-type bacteria was diluted with the 2× MH broth containing 1.8% NaCl so that to reach a final cell concentration of 10^6 CFU/ml. 50 μl aliquots of the obtained bacterial suspension were added to 50 μl of the peptide solutions serially diluted with 0.1% water solution of BSA in 96-well microplates (Eppendorf #0030730011). After incubation at 37°C and 900 rpm for 22 ± 2 h, MICs were determined as described above. For each subsequent daily transfer, 5 μl of the inoculum taken from the first well with a sub-inhibitory drug concentration were diluted with 1 ml of the fresh 2× MH broth supplemented with 1.8% NaCl. […] 26 repeated passages in the presence of antimicrobial agents were made for each bacterial strain during the experiment. […] Control serial passages in the absence of the agent were also performed.

[12] = test system: E. coli XDR CI 1057 (26 days with synergy combination); conditions: Table 4, strain after 26 days with synergy combination (selection in MH broth with 0.9% NaCl)
Protocol: as §1, with “After incubation at 37°C and 900 rpm for 24 h the minimum inhibitory concentrations (MIC) were determined as the lowest peptide concentrations that prevented growth of a test microorganism observed as visible turbidity.” left out
as §3

[13] = test system: mammalian cell lines (HEK293T, HEF); test: Cytotoxicity (MTT assay); type: cell-based, human; conditions: HEK293T and HEF, 24 h incubation
Protocol: Hemolytic activity of the peptides was tested against the fresh suspension of human red blood cells (hRBC) using the hemoglobin release assay as described previously ([Panteleev et al., 2016]). Three experiments were performed with the hRBC from blood samples obtained from independent donors. The obtained data were represented as average means with standard deviations. The cytotoxicity of the peptides against HEK293T (transformed human embryonic kidney cells) and HEF (human embryonic fibroblasts) cell lines was studied using the colorimetric 3-(4,5-dimethylthiazol-2-yl)-2,5-diphenyltetrazolium bromide (MTT) dye reduction assay according to ([Panteleev and Ovchinnikova, 2017]). Three independent experiments were performed for each peptide. Half maximal inhibitory concentration (IC50) values were estimated as described previously ([Kuzmin et al., 2018]).

[14] = 0.9% NaCl, Mueller-Hinton broth, 10^6 CFU/ml, 0.1% BSA, 37°C, 24 h, median of at least 3 experiments
[15] = Table S2, XDR clinical isolate, NaCl content of medium not stated
[16] = Without NaCl, Mueller-Hinton broth, 10^6 CFU/ml, 0.1% BSA, 37°C, 24 h, median of at least 3 experiments
[17] = Table 4, strain at 0 days of selection experiment (selection in MH broth with 0.9% NaCl)

## GRFKRFRKKLKRLWHKVGPFVGPILHY [ChMAP-28]
[1]; [14]
  MIC: 0.25 µM
[1]; [15]
  MIC: 0.25 µM
[1]; [16]
  MIC: 0.03 µM
[2]; [17]
  Minimum inhibitory concentration: 0.125 µM
[2]; [15]
  Minimum inhibitory concentration: 0.125 µM
[3]
  MIC: 0.125 µM
[4]; 0.9% NaCl
  Minimum inhibitory concentration: 0.06 µM
[4]; Without NaCl
  Minimum inhibitory concentration: 0.06 µM
[5]
  Fractional inhibitory concentration (FICA, FICB): 0.25
  MIC of the individual peptide (MICA, MICB): 0.06 µM
[6]
  Fractional inhibitory concentration (FICA, FICB): 0.063
  MIC of the peptide when used together ([A], [B]): 0.008 µM
  MIC of the individual peptide (MICA, MICB): 0.125 µM
[7]
  Fractional inhibitory concentration (FICA, FICB): 0.25
  MIC of the individual peptide (MICA, MICB): 0.06 µM
[8]; [X]/MICX, 0.9% NaCl
  Fractional inhibitory concentration (FICA, FICB): 0.125-0.25
[8]; peptide used individually, medium with physiological NaCl (0.9%), median of 3 experiments in duplicate
  MIC of the individual peptide (MICA, MICB): 0.125 µM
[9]
  Fractional inhibitory concentration (FICA, FICB): 0.125
  MIC of the peptide when used together ([A], [B]): 0.008 µM
  MIC of the individual peptide (MICA, MICB): 0.06 µM
[10]
  Fractional inhibitory concentration (FICA, FICB): 0.125
  MIC of the peptide when used together ([A], [B]): 0.03 µM
  MIC of the individual peptide (MICA, MICB): 0.25 µM
[11]
  Minimum inhibitory concentration: 0.25 µM
[12]
  Minimum inhibitory concentration: 0.125 µM

## RRLRPRRPRLPRPRPRPRPRPR [mini-ChBac7.5Nα]
[1]; [14]
  MIC: >32 µM
[1]; [16]
  MIC: 2 µM
[2]; [17]
  Minimum inhibitory concentration: 8 µM
[4]; 0.9% NaCl
  Minimum inhibitory concentration: 4 µM
[4]; Without NaCl
  Minimum inhibitory concentration: 0.5 µM
[5]
  MIC of the individual peptide (MICA, MICB): >64 µM
[6]
  Fractional inhibitory concentration (FICA, FICB): 0.25
  MIC of the peptide when used together ([A], [B]): 2 µM
  MIC of the individual peptide (MICA, MICB): 8 µM
[7]
  Fractional inhibitory concentration (FICA, FICB): 0.125
  MIC of the individual peptide (MICA, MICB): 8 µM
[8]; C600, 24 h
  Fractional inhibitory concentration (FICA, FICB): 0.25
  MIC of the individual peptide (MICA, MICB): 4 µM
[9]
  Fractional inhibitory concentration (FICA, FICB): 0.25
  MIC of the peptide when used together ([A], [B]): 1 µM
  MIC of the individual peptide (MICA, MICB): 4 µM
[10]
  Fractional inhibitory concentration (FICA, FICB): 0.125
  MIC of the peptide when used together ([A], [B]): 0.5 µM
  MIC of the individual peptide (MICA, MICB): 4 µM
[11]
  Minimum inhibitory concentration: 64 µM
[12]
  Minimum inhibitory concentration: 8 µM
[13]
  concentrations at which cytotoxic activity was shown: > 25 µM
